Results on three compounds are retold here after patent US20230348459A1, “PYRROLIDINE COMPOUND AND USE THEREOF” (SIMCERE PHARMACEUTICAL CO., LTD., priority 2020, published 2023).

One may read the IC50 as the concentration at which inhibition is half-maximal. Read a high IC50 as lower potency. As a reminder, the fraction unbound is the share of the substance not bound to proteins or other matrix. High values mean weak binding, low ones extensive binding.

In data set [1] the target is voltage-gated potassium ion channel hERG (Homo sapiens (Human), UniProt Q12809). As to the kind of experiment: hERG manual patch clamp in HEK293 cells. It counts as cell-based. As to conditions: HEK293 cells stably expressing hERG. As for the experimental part: HEK293 cell line stably expressing hERG ion channel (Cat. No. K1236) was purchased from Invitrogen. The cell line was cultured in the medium containing 85% DMEM, 10% dialysis fetal bovine serum, 0.1 mM non-essential amino acid solution, 100 U/mL penicillin-streptomycin solution, 25 mM HEPES, 5 µg/mL blasticidin and 400 µg/mL geneticin. When the cell density increased to 40%-80% of the bottom area of the culture dish, trypsin was used for digestion and passage, and the cells were passaged three times weekly. Before the experiment, the cells were cultured in a 6 cm culture dish at a density of 5 × 10^5 and induced by adding 1 µg/mL doxycycline for 48 hours, and then the cells were digested and inoculated on glass slides for subsequent manual patch clamp experiments.
Chain of voltage-gated potassium ion channel hERG (Q12809 whole entry): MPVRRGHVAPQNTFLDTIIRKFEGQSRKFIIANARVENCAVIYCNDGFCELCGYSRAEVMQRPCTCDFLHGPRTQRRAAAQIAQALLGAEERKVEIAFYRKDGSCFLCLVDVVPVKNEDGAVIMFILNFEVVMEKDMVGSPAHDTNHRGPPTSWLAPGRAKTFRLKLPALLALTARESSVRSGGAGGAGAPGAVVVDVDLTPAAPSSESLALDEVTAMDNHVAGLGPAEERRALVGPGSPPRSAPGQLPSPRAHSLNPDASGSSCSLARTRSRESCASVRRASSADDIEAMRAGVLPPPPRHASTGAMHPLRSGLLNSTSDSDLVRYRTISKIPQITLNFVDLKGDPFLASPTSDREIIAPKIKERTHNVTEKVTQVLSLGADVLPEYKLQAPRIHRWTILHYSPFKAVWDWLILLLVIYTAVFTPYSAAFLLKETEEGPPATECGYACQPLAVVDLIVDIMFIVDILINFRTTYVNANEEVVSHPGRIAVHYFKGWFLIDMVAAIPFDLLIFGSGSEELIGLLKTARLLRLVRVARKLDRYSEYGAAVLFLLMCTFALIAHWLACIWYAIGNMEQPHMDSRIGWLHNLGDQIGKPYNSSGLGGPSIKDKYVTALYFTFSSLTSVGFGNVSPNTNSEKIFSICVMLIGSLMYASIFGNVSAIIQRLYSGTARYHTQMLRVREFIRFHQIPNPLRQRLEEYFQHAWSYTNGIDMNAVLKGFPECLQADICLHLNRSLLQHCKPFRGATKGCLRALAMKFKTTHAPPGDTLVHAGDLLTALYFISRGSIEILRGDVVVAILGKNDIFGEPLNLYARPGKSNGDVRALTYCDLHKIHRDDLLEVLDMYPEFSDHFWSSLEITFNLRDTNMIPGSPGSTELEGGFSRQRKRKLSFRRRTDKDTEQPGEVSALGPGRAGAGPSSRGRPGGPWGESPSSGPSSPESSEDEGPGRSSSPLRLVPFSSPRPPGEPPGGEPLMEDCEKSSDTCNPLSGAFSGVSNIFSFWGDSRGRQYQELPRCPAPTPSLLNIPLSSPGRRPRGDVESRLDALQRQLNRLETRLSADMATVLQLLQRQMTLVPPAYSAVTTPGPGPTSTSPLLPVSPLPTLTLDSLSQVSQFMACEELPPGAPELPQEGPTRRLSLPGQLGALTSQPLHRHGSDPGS
1) According to the SOP-ADMET-MAN-007 standard operating procedure, the compounds to be tested were dissolved with DMSO and prepared into the stock solution with a final concentration of 10 mM. […]
10. Determination of the inhibitory effect of the compounds to be tested on hERG current: First, the hERG current measured in extracellular fluid containing 0.1% DMSO was used as the detection baseline. […] By waiting for about 5 minutes after the completion of each perfusion, the compound was allowed to fully act on the cells, and the hERG currents were simultaneously recorded. After the currents to be recorded became stable, the last 5 hERG current values were recorded, and the average value thereof was taken as the final current value thereof at a specific concentration. […] In addition, the positive compound dofelide was detected with the same patch clamp system both before and after the completion of the test compound experiment to ensure the reliability and sensitivity of the entire detection system.
1) After perfusion of blank solvent or compound gradient solution, the average value of 5 continuous current values obtained in a stable state is calculated as “tail current valueblank” and “tail current valuecompound”, respectively.
2) The percent current inhibition was calculated by the following formula. […]
(hERG is a cardiac potassium channel; its block is linked to QT prolongation.)

The nature of data set [2]: Plasma protein binding rate, equilibrium dialysis, mouse plasma. Type of data set: in vitro ADME. As to conditions: pH 7.4, CD-1 mouse plasma, 6 hours dialysis. The method, then: (§1) The protein binding rate of the compounds of the present invention in the plasma of five species (human, monkey, dog, rat and mouse) was determined by the following test method.
(§2) • 1. Human plasma (BioIVT), beagle dog plasma (BioIVT), SD rat plasma (BioIVT), CD-1 mouse plasma (BioIVT); • 2. 96-well equilibrium dialysis plate (HTDialysis LLC, Gales Ferry, CT, HTD96B), equilibrium dialysis membrane (MWCO 12-14 K, #1101); • 3. Positive control compound warfarin; • 4. ABI QTrap 5500 liquid chromatography-mass spectrometry.
(§3) 1. Preparation of a buffer with a concentration of 100 mM sodium phosphate and 150 mM NaCl: an alkaline solution with a concentration of 14.2 g/L Na2HPO4 and 8.77 g/L NaCl was prepared with ultrapure water, and an acidic solution with a concentration of 12.0 g/L NaH2PO4 and 8.77 g/L NaCl was prepared with ultrapure water. The alkaline solution was titrated with the acidic solution to pH 7.4 to prepare a buffer with a concentration of 100 mM sodium phosphate and 150 mM NaCl.
(§4) 2. Preparation of dialysis membrane: the dialysis membrane was soaked in ultrapure water for 60 minutes to separate the membrane into two pieces, then soaked in 20% ethanol for 20 minutes, and finally soaked in the buffer used for dialysis for 20 minutes.
(§5) 3. Preparation of plasma: the frozen plasma was quickly thawed at room temperature, then the plasma was centrifuged at 3,220 g at 4° C. for 10 min to remove clots, and the supernatant was collected into a new centrifuge tube. The pH of the plasma was measured and recorded, and the plasma with pH of 7-8 was used.
(§6) 3. Preparation of compound-containing plasma samples: 10 mM stock solution of compounds of the present invention or positive control compounds were diluted with DMSO to obtain 200 µM working solution. […]
(§7) The peak areas of the compounds on the buffer side and the plasma side were determined. […]
(§8) All the data was calculated by the Microsoft Excel software. The plasma protein binding rate values of the compounds of the present invention were calculated.
In general terms: Equilibrium dialysis compares concentrations on both sides of a semipermeable membrane.

A short description of data set [3]: Plasma protein binding rate, equilibrium dialysis, rat plasma. Type of data set: in vitro ADME. The conditions noted are these: pH 7.4, SD rat plasma, 6 hours dialysis. As for the experimental part: as §1, §2, §3, §4, §5, §6, §7, §8
A short description of data set [4]: Plasma protein binding rate, equilibrium dialysis, human plasma. Type of data set: in vitro ADME. As to conditions: pH 7.4, 6 hours dialysis. The method, then:
as §1, §2, §3, §4, §5, §6, §7, §8

`C[C@@H]1Cc2c([nH]c3ccccc23)C(c2c(F)cc(N[C@H]3CCN(CCCF)C3)cc2F)N1CC(F)(F)F` (stereo in doubt) [Example 4, (S)-N-(3,5-difluoro-4-((1S,3R)-3-methyl-2-(2,2,2-trifluoroethyl)-2,3,4,9-tetrahydro-1H-pyridino[3,4-b]indol-1-yl)phenyl)-1-(3-fluoropropyl)pyrrolidin-3-amine]: in data set [1], the IC50 was 3.7 µM. Moreover, the fraction unbound at 6 h, 1 µM in data set [2], in data set [3] and in data set [4] was 0.002 each time.

In turn, `C[C@@H]1Cc2c([nH]c3ccccc23)C(c2c(F)cc(N[C@H]3CCN(CCCF)C3)cc2F)N1CC(F)(F)CO` (stereo in doubt) [Example 7, 3-((1S,3R)-1-(2,6-difluoro-4-(((S)-1-(3-fluoropropyl)pyrrolidin-3-yl)amino)phenyl)-3-methyl-3,4-dihydro-1H-pyridino [3,4-b]indole-2(9H)-yl)-2,2-difluoropropane-1-ol] had an IC50 in data set [1] of 8.4 µM. Moreover, the fraction unbound at 6 h, 1 µM in data set [2] was 0.012; in data set [3] it was 0.015; in data set [4] it was 0.005.

In data set [1], `C[C@@H]1Cc2c([nH]c3ccccc23)[C@@H](c2ccc(N[C@H]3CCN(CCCF)C3)cn2)N1CC(F)(F)F` [Example 3, N-((S)-1-(3-fluoropropyl)pyrrolidin-3-yl)-6-((1S,3R)-3-methyl-2-(2,2,2-trifluoroethyl)-2,3,4,9-tetrahydro-1H-pyridino[3,4-b]indol-1-yl)pyridine-3-amine] came in with an IC50 of 10 µM. Besides, the figures for the fraction unbound at 6 h, 1 µM in data set [2], in data set [3] and in data set [4] were 0.019, 0.029 and 0.012, respectively.
